Consider 6 molecules from patent US10870872B2, “Enzymatic nucleic acid synthesis” (President and Fellows of Harvard College, priority 2016, dated 2020).

Assay [1] deals with T1, TdT (Homo sapiens, UniProt P04053). Put plainly: Screen of nucleotide analogue substrates for TdT-based DNA synthesis (NPU formulation with Apyrase). It is filed as biochemical. As to conditions: for behavior with respect to TdT-based DNA synthesis (extension efficiency, rate, extension length distribution): natural nucleotides; for efficiency as substrate of TdT versus natural counterpart: analogues more positively charged than natural counterparts. From the text: In the general scheme of the presently disclosed methods, the distribution of extension length by TdT is important to ensure efficient and reliable encoding of information into DNA. […] The following nucleotide analogues with the NPU formulation which included Apyrase were explored.
T1 sequence (P04053 whole entry, species assumed): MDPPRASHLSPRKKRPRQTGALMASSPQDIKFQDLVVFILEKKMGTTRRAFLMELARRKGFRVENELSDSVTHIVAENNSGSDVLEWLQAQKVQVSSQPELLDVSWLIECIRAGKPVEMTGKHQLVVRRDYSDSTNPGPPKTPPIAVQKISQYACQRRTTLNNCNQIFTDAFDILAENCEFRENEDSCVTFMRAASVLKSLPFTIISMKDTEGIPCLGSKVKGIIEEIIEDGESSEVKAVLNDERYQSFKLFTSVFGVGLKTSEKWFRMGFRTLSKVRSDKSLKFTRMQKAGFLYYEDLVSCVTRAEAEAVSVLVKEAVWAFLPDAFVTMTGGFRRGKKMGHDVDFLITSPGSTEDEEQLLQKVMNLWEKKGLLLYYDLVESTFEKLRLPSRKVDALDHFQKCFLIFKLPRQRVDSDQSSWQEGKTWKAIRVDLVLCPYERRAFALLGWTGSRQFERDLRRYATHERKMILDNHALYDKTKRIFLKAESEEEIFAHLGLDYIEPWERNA

For assay [2], the target named is T1, TdT. The assay can be described thus: Chemical control of TdT extension by Apyrase on immobilized initiator oligo (PCR, agarose gel). Format: biochemical. The settings on record: 0.001 U/μL Apyrase, 1 U/μL TdT, 4 minutes at room temperature. The procedure:
According to an exemplary protocol of the present disclosure, an initiator oligonucleotide was first immobilized onto a surface, for example with the use of a 5 prime modified oligonucleotide onto aldehyde functionalized glass slides. After tethering the initiator to a solid support, the surface was treated to neutralize the chemical reactive groups such as aldehydes in this case, and to increase hydrophobicity.
Dilutions of nucleotides in solvents such as water or ethanol of the following concentration and types were prepared:
Each of these nucleotides were printed on an oligo spot with a liquid handling robot followed by printing of the enzymatic mix comprising TdT (Terminal deoxynucleotidyl transferase) and Apyrase. […]
Each of the synthesized DNA strands were released off the solid-support surface, in this exemplary embodiment, enzymatically, by the use of USER (Uracil-Specific Excision Reagent) enzyme which cleaves the uracils that are near the 5 prime distal end of the initial initiator oligonucleotide. These strands were subsequently PCR amplified and the number of synthesized nucleotides were evaluated by two methods: electrophoresis on agarose or PAGE gels for cursory bulk analysis and sequenced with next-generation sequencing platforms such as Illumina, Pacific Bioscience, and/or Oxford Nanopore for quantitative single-molecule analysis. […]

Take `Nc1ccn([C@H]2C[C@H](O)[C@@H](COP(=O)(O)OP(=O)(O)OP(=O)(O)O)O2)c(=O)n1` [dCTP]: the “behavior with respect to TdT-based DNA synthesis (extension efficiency, rate, extension length distribution)” value (“behavior” below) on TdT [1] is recorded as “most optimal behavior”.

In the case of `NCC#Cc1cn(C2CC(O)C(COP(=O)(O)OP(=O)(O)OP(=O)(O)O)O2)c(=O)[nH]c1=O` (stereo not drawn) [5-Propargylamino-dUTP], on TdT [1], the “efficiency as substrate of TdT versus natural counterpart” value is on record as “far more efficient substrates of TdT”.

Turning to `Nc1ncnc2c1ncn2[C@H]1C[C@H](O)[C@@H](COP(=O)(O)OP(=O)(O)OP(=O)(O)O)O1` [dATP], the “behavior” value at TdT [1] was “poorest behavior”.

As to `NC/C=C/c1cn(C2CC(O)C(COP(=O)(O)OP(=O)(O)OP(=O)(O)O)O2)c(=O)[nH]c1=O` (stereo not drawn) [5-Aminoallyl-dUTP], the “efficiency as substrate of TdT versus natural counterpart” value on TdT [1] is listed as “far more efficient substrates of TdT”.

As for Apyrase, the “effect on average amount of extension by TdT” value on TdT [2] is on record as “effectively limited the average amount of extension by TdT”.

Turning to `Cc1cn([C@H]2C[C@H](O)[C@@H](COP(=O)(O)OP(=O)(O)OP(=O)(O)O)O2)c(=O)[nH]c1=O` [dTTP], the “behavior” value on TdT [1] is reported as “poorest behavior”.
